Test results: ChEMBL document CHEMBL1147331, “Cytotoxic and antimalarial bisbenzylisoquinoline alkaloids from Stephania erecta” (J Nat Prod, 1993)
Converted amounts (≈) assume the structure as drawn.

Experiments:
in vitro [1] = conditions: human, A431 cells
Description: Selectivity index, ratio of ED50 for human A431 cells to ED50 for chloroquine-resistant Plasmodium falciparum W2

[2] = Selectivity index, ratio of ED50 for human COL1 cells to ED50 for chloroquine-resistant Plasmodium falciparum W2; type: toxicity, cell-based; conditions: read-out: Ratio ED50
in vitro [3] = conditions: human, A431 cells; remark: listed apart in the source
Description: Selectivity index, ratio of ED50 for human A431 cells to ED50 for chloroquine-sensitive Plasmodium falciparum D6

[4] = Cytotoxicity against human ZR-75-1 cells after 3 days by sulforhodamine B assay; type: cell-based; conditions: read-out: ED50
[5] = Selectivity index, ratio of ED50 for human BCA1 cells to ED50 for chloroquine-resistant Plasmodium falciparum W2; type: toxicity, cell-based; conditions: read-out: Ratio ED50
[6] = Cytotoxicity against human SK-MEL-2 cells after 3 days by sulforhodamine B assay; type: cell-based; conditions: read-out: ED50
[7] = Selectivity index, ratio of ED50 for human KB-V1 cells to ED50 for chloroquine-resistant Plasmodium falciparum W2; type: toxicity, cell-based; conditions: read-out: Ratio ED50
Plasmodium falciparum [8] = test: Antimalarial activity after 24 hrs against chloroquine-resistant Plasmodium falciparum W2 infected type A+ human erythrocytes by [3H]hypoxanthine uptake; type: functional; conditions: read-out: ED50 (the source's name)
[9] = Selectivity index, ratio of ED50 for human LNCaP cells to ED50 for chloroquine-resistant Plasmodium falciparum W2; type: toxicity, cell-based; conditions: read-out: Ratio ED50
[10] = Cytotoxicity against human BCA1 cells after 3 days by sulforhodamine B assay; type: cell-based; conditions: read-out: ED50
[11] = Selectivity index, ratio of ED50 for human ZR-75-1 cells to ED50 for chloroquine-resistant Plasmodium falciparum W2; type: toxicity, cell-based; conditions: read-out: Ratio ED50
in vitro [12] = conditions: mouse, P388 cells
Description: Selectivity index, ratio of ED50 for mice (Mus musculus) P388 cells to ED50 for chloroquine-sensitive Plasmodium falciparum D6

[13] = Cytotoxicity against human KB cells after 3 days by sulforhodamine B assay; type: cell-based; conditions: read-out: ED50
[14] = Selectivity index, ratio of ED50 for human HT1080 cells to ED50 for chloroquine-resistant Plasmodium falciparum W2; type: toxicity, cell-based, HT-1080; conditions: read-out: Ratio ED50
[15] = Selectivity index, ratio of ED50 for human MEL2 cells to ED50 for chloroquine-resistant Plasmodium falciparum W2; type: toxicity, cell-based; conditions: read-out: Ratio ED50
[16] = Cytotoxicity against human LNCAP cells after 3 days by sulforhodamine B assay; type: cell-based; conditions: read-out: ED50
[17] = Selectivity index, ratio of ED50 for human KB cells to ED50 for chloroquine-resistant Plasmodium falciparum W2; type: toxicity, cell-based; conditions: read-out: Ratio ED50
[18] = Selectivity index, ratio of ED50 for human KB-V1 cells to ED50 for chloroquine-sensitive Plasmodium falciparum D6; type: toxicity, cell-based; conditions: read-out: Ratio ED50
[19] = Selectivity index, ratio of ED50 for human COL1 cells to ED50 for chloroquine-sensitive Plasmodium falciparum D6; type: toxicity, cell-based; conditions: read-out: Ratio ED50
[20] = Selectivity index, ratio of ED50 for human LNCaP cells to ED50 for chloroquine-sensitive Plasmodium falciparum D6; type: toxicity, cell-based; conditions: read-out: Ratio ED50
[21] = Cytotoxicity against mouse P388 cells after 2 days by sulforhodamine B assay; type: cell-based; conditions: read-out: ED50
[22] = Selectivity index, ratio of ED50 for human LUC1 cells to ED50 for chloroquine-sensitive Plasmodium falciparum D6; type: toxicity, cell-based; conditions: read-out: Ratio ED50
in vitro [23] = conditions: mouse, P388 cells; remark: listed apart in the source
Description: Selectivity index, ratio of ED50 for mice (Mus musculus) P388 cells to ED50 for chloroquine-resistant Plasmodium falciparum W2

[24] = Cytotoxicity against human LUC1 cells after 3 days by sulforhodamine B assay; type: cell-based; conditions: read-out: ED50
[25] = Cytotoxicity against human HT1080 cells after 3 days by sulforhodamine B assay; type: cell-based, HT-1080; conditions: read-out: ED50
[26] = Selectivity index, ratio of ED50 for human ZR-75-1 cells to ED50 for chloroquine-sensitive Plasmodium falciparum D6; type: toxicity, cell-based; conditions: read-out: Ratio ED50
[27] = Cytotoxicity against human Col1 cells after 3 days by sulforhodamine B assay; type: cell-based; conditions: read-out: ED50
[28] = Selectivity index, ratio of ED50 for human HT1080 cells to ED50 for chloroquine-sensitive Plasmodium falciparum D6; type: toxicity, cell-based, HT-1080; conditions: read-out: Ratio ED50
[29] = Selectivity index, ratio of ED50 for human BCA1 cells to ED50 for chloroquine-sensitive Plasmodium falciparum D6; type: toxicity, cell-based; conditions: read-out: Ratio ED50
[30] = Selectivity index, ratio of ED50 for human MEL2 cells to ED50 for chloroquine-sensitive Plasmodium falciparum D6; type: toxicity, cell-based; conditions: read-out: Ratio ED50
Plasmodium falciparum [31] = test: Antimalarial activity after 24 hrs against chloroquine-sensitive Plasmodium falciparum D6 infected type A+ human erythrocytes by [3H]hypoxanthine uptake; type: functional; conditions: read-out: ED50 (the source's name)
[32] = Selectivity index, ratio of ED50 for human LUC1 cells to ED50 for chloroquine-resistant Plasmodium falciparum W2; type: toxicity, cell-based; conditions: read-out: Ratio ED50
[33] = Selectivity index, ratio of ED50 for human KB cells to ED50 for chloroquine-sensitive Plasmodium falciparum D6; type: toxicity, cell-based; conditions: read-out: Ratio ED50
[34] = Cytotoxicity against human KBV1 cells after 3 days by sulforhodamine B assay; type: cell-based, KB-V1; conditions: read-out: ED50
[35] = Cytotoxicity against human A431 cells after 3 days by sulforhodamine B assay; type: cell-based, A-431; conditions: read-out: ED50

COc1ccc2cc1Oc1ccc(cc1)C[C@H]1c3c(cc(OC)c(OC)c3Oc3cc4c(cc3OC)CCN(C)[C@@H]4C2)CCN1C [OBABERINE]
selectivity ratio (in vitro [1]): 40
selectivity ratio [2]: 50
selectivity ratio (in vitro [3]): 38
CC50 at 72 h [4]: 4 µg/mL (≈ 6.42 µM)
selectivity ratio [5]: 21
CC50 at 72 h [6]: 20 µg/mL (≈ 32.1 µM)
selectivity ratio [7]: 12
EC50 (Plasmodium falciparum [8]): 0.216 µg/mL (≈ 0.347 µM)
selectivity ratio [9]: 23
CC50 at 72 h [10]: 4.6 µg/mL (≈ 7.39 µM)
selectivity ratio [11]: 19
selectivity ratio (in vitro [12]): 18
CC50 at 72 h [13]: 8.6 µg/mL (≈ 13.8 µM)
selectivity ratio [14]: 48
selectivity ratio [15]: 93
CC50 at 72 h [16]: 5 µg/mL (≈ 8.03 µM)
selectivity ratio [17]: 40
selectivity ratio [18]: 11
selectivity ratio [19]: 47
selectivity ratio [20]: 22
CC50 at 48 h [21]: 4.1 µg/mL (≈ 6.58 µM)
selectivity ratio [22]: 42
selectivity ratio (in vitro [23]): 19
CC50 at 72 h [24]: 9.7 µg/mL (≈ 15.6 µM)
CC50 at 72 h [25]: 10.4 µg/mL (≈ 16.7 µM)
selectivity ratio [26]: 17
CC50 at 72 h [27]: 10.8 µg/mL (≈ 17.3 µM)
selectivity ratio [28]: 45
selectivity ratio [29]: 20
selectivity ratio [30]: 87
EC50 (Plasmodium falciparum [31]): 0.231 µg/mL (≈ 0.371 µM)
selectivity ratio [32]: 45
selectivity ratio [33]: 37
CC50 at 72 h [34]: 2.6 µg/mL (≈ 4.17 µM)
CC50 at 72 h [35]: 8.7 µg/mL (≈ 14 µM)

COc1ccc2cc1Oc1ccc(cc1)C[C@H]1c3cc(c(OC)cc3CCN1C)Oc1c(OC)c(OC)cc3c1[C@@H](C2)N(C)CC3
selectivity ratio (in vitro [1]): 154
selectivity ratio [2]: 192
selectivity ratio (in vitro [3]): 51
CC50 at 72 h [4]: 5 µg/mL (≈ 8.03 µM)
selectivity ratio [5]: 99
CC50 at 72 h [6]: 19.5 µg/mL (≈ 31.3 µM)
selectivity ratio [7]: 28
EC50 (Plasmodium falciparum [8]): 0.0546 µg/mL (≈ 0.0877 µM)
selectivity ratio [9]: 172
CC50 at 72 h [10]: 5.4 µg/mL (≈ 8.67 µM)
selectivity ratio [11]: 92
selectivity ratio (in vitro [12]): 34
CC50 at 72 h [13]: 6.6 µg/mL (≈ 10.6 µM)
selectivity ratio [14]: 202
selectivity ratio [15]: 357
CC50 at 72 h [16]: 9.4 µg/mL (≈ 15.1 µM)
selectivity ratio [17]: 121
selectivity ratio [18]: 9
selectivity ratio [19]: 64
selectivity ratio [20]: 57
CC50 at 48 h [21]: 5.6 µg/mL (≈ 8.99 µM)
selectivity ratio [22]: 61
selectivity ratio (in vitro [23]): 103
CC50 at 72 h [24]: 10 µg/mL (≈ 16.1 µM)
CC50 at 72 h [25]: 11 µg/mL (≈ 17.7 µM)
selectivity ratio [26]: 30
CC50 at 72 h [27]: 10.5 µg/mL (≈ 16.9 µM)
selectivity ratio [28]: 67
selectivity ratio [29]: 33
selectivity ratio [30]: 118
EC50 (Plasmodium falciparum [31]): 0.165 µg/mL (≈ 0.265 µM)
selectivity ratio [32]: 183
selectivity ratio [33]: 40
CC50 at 72 h [34]: 1.5 µg/mL (≈ 2.41 µM)
CC50 at 72 h [35]: 8.4 µg/mL (≈ 13.5 µM)

COc1ccc2cc1Oc1ccc(cc1)C[C@H]1c3c(cc(OC)c(O)c3Oc3cc4c(cc3OC)CCN[C@@H]4C2)CCN1C
selectivity ratio (in vitro [1]): 37
selectivity ratio [2]: 46
selectivity ratio (in vitro [3]): 132
CC50 at 72 h [4]: 1.8 µg/mL (≈ 3.03 µM)
selectivity ratio [5]: 21
CC50 at 72 h [6]: 13.4 µg/mL (≈ 22.5 µM)
selectivity ratio [7]: 10
EC50 (Plasmodium falciparum [8]): 0.223 µg/mL (≈ 0.375 µM)
selectivity ratio [9]: 26
CC50 at 72 h [10]: 4.6 µg/mL (≈ 7.73 µM)
selectivity ratio [11]: 8
selectivity ratio (in vitro [12]): 32
CC50 at 72 h [13]: 5.8 µg/mL (≈ 9.75 µM)
selectivity ratio [14]: 31
selectivity ratio [15]: 60
CC50 at 72 h [16]: 5.8 µg/mL (≈ 9.75 µM)
selectivity ratio [17]: 26
selectivity ratio [18]: 35
selectivity ratio [19]: 164
selectivity ratio [20]: 92
CC50 at 48 h [21]: 2 µg/mL (≈ 3.36 µM)
selectivity ratio [22]: 143
selectivity ratio (in vitro [23]): 9
CC50 at 72 h [24]: 9 µg/mL (≈ 15.1 µM)
CC50 at 72 h [25]: 6.9 µg/mL (≈ 11.6 µM)
selectivity ratio [26]: 29
CC50 at 72 h [27]: 10.3 µg/mL (≈ 17.3 µM)
selectivity ratio [28]: 110
selectivity ratio [29]: 73
selectivity ratio [30]: 213
EC50 (Plasmodium falciparum [31]): 0.063 µg/mL (≈ 0.106 µM)
selectivity ratio [32]: 40
selectivity ratio [33]: 92
CC50 at 72 h [34]: 2.2 µg/mL (≈ 3.7 µM)
CC50 at 72 h [35]: 8.3 µg/mL (≈ 14 µM)
